Laboratory results reported in PubChem BioAssay (NCI).
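A five-concentration, 48-hour dose response in 96-well plates underlies each endpoint, interpolated linearly between surrounding concentrations. Here, GI50 denotes the concentration required for 50% inhibition of growth. TGI: total growth inhibition.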

Assays:
Assay in all cases: DTP human tumour cell line panel, 48 h
RPMI-8226 leukemia = tested on: RPMI-8226 leukemia
OVCAR-3 ovarian = tested on: OVCAR-3 ovarian
NCI-H460 lung = tested on: NCI-H460 lung
HCT-15 colon = tested on: HCT-15 colon
HOP-92 NSCLC = tested on: HOP-92 NSCLC
RXF 393 renal = tested on: RXF 393 renal
NCI-H23 lung = tested on: NCI-H23 lung
BT-549 breast = tested on: BT-549 breast
HT29 colon = tested on: HT29 colon
COLO 205 colon = tested on: COLO 205 colon
CAKI-1 renal = tested on: CAKI-1 renal
MDA-MB-231 breast = tested on: MDA-MB-231 breast
LOX IMVI melanoma = tested on: LOX IMVI melanoma
SF-539 CNS = tested on: SF-539 CNS
NCI-H226 lung = tested on: NCI-H226 lung
786-0 renal = tested on: 786-0 renal
MDA-MB-435 = tested on: MDA-MB-435
MOLT-4 leukemia = tested on: MOLT-4 leukemia
SNB-75 CNS = tested on: SNB-75 CNS
SF-295 CNS = tested on: SF-295 CNS
A549 NSCLC = tested on: A549 NSCLC
HS 578T breast = tested on: HS 578T breast
OVCAR-5 ovarian = tested on: OVCAR-5 ovarian
KM12 colon = tested on: KM12 colon
ACHN renal = tested on: ACHN renal
OVCAR-4 ovarian = tested on: OVCAR-4 ovarian
NCI-H522 lung = tested on: NCI-H522 lung
SK-OV-3 ovarian = tested on: SK-OV-3 ovarian
DU-145 prostate = tested on: DU-145 prostate
SN12C renal = tested on: SN12C renal
HOP-62 NSCLC = tested on: HOP-62 NSCLC
NCI/ADR-RES ovarian = tested on: NCI/ADR-RES ovarian
OVCAR-8 ovarian = tested on: OVCAR-8 ovarian
PC-3 prostate = tested on: PC-3 prostate
T-47D breast = tested on: T-47D breast
HCC-2998 colon = tested on: HCC-2998 colon
CCRF-CEM leukemia = tested on: CCRF-CEM leukemia
MALME-3M melanoma = tested on: MALME-3M melanoma
UACC-257 melanoma = tested on: UACC-257 melanoma
SF-268 CNS = tested on: SF-268 CNS
U251 CNS = tested on: U251 CNS
SK-MEL-28 melanoma = tested on: SK-MEL-28 melanoma
TK-10 renal = tested on: TK-10 renal
MCF7 breast = tested on: MCF7 breast
SK-MEL-5 melanoma = tested on: SK-MEL-5 melanoma
UO-31 renal = tested on: UO-31 renal
HCT-116 colon = tested on: HCT-116 colon
UACC-62 melanoma = tested on: UACC-62 melanoma
M14 melanoma = tested on: M14 melanoma
EKVX NSCLC = tested on: EKVX NSCLC
SK-MEL-2 melanoma = tested on: SK-MEL-2 melanoma
SW-620 colon = tested on: SW-620 colon
IGROV1 ovarian = tested on: IGROV1 ovarian
A498 renal = tested on: A498 renal
SNB-19 CNS = tested on: SNB-19 CNS

COC(=O)[C@@]1(C)CCC[C@]2(C)[C@H]3Cc4occc4[C@H](C)[C@@H]3CC[C@@]12O
GI50 (RPMI-8226 leukemia): 17.9 µM
TGI (RPMI-8226 leukemia): > 100 µM
GI50 (OVCAR-3 ovarian): 17.3 µM
TGI (OVCAR-3 ovarian): 59 µM
GI50 (NCI-H460 lung): 16.3 µM
TGI (NCI-H460 lung): 49.2 µM
GI50 (HCT-15 colon): 73.5 µM
TGI (HCT-15 colon): > 100 µM
GI50 (HOP-92 NSCLC): 13.4 µM
TGI (HOP-92 NSCLC): 57.9 µM
GI50 (RXF 393 renal): 25 µM
TGI (RXF 393 renal): 93.1 µM
GI50 (NCI-H23 lung): 45.3 µM
TGI (NCI-H23 lung): > 100 µM
GI50 (BT-549 breast): 26.9 µM
TGI (BT-549 breast): 70.5 µM
GI50 (HT29 colon): 20.9 µM
TGI (HT29 colon): > 100 µM
GI50 (COLO 205 colon): 33.1 µM
TGI (COLO 205 colon): > 100 µM
GI50 (CAKI-1 renal): 41.8 µM
TGI (CAKI-1 renal): > 100 µM
GI50 (MDA-MB-231 breast): 32.4 µM
TGI (MDA-MB-231 breast): > 100 µM
GI50 (LOX IMVI melanoma): 18.4 µM
TGI (LOX IMVI melanoma): 42.6 µM
GI50 (SF-539 CNS): 19.9 µM
TGI (SF-539 CNS): 40.2 µM
GI50 (NCI-H226 lung): 20.9 µM
TGI (NCI-H226 lung): 64.7 µM
GI50 (786-0 renal): 45.8 µM
TGI (786-0 renal): > 100 µM
GI50 (MDA-MB-435): 16.7 µM
TGI (MDA-MB-435): 38.7 µM
GI50 (MOLT-4 leukemia): 17.3 µM
TGI (MOLT-4 leukemia): 80.3 µM
GI50 (SNB-75 CNS): 55.6 µM
TGI (SNB-75 CNS): > 100 µM
GI50 (SF-295 CNS): 21.1 µM
TGI (SF-295 CNS): 66.8 µM
GI50 (A549 NSCLC): 34.4 µM
TGI (A549 NSCLC): > 100 µM
GI50 (HS 578T breast): 20.1 µM
TGI (HS 578T breast): 41.4 µM
GI50 (OVCAR-5 ovarian): 73.7 µM
TGI (OVCAR-5 ovarian): > 100 µM
GI50 (KM12 colon): 16 µM
TGI (KM12 colon): 32.8 µM
GI50 (ACHN renal): 17.8 µM
TGI (ACHN renal): 50.2 µM
GI50 (OVCAR-4 ovarian): 92.3 µM
TGI (OVCAR-4 ovarian): > 100 µM
GI50 (NCI-H522 lung): 31.4 µM
TGI (NCI-H522 lung): 98.5 µM
GI50 (SK-OV-3 ovarian): > 100 µM
TGI (SK-OV-3 ovarian): > 100 µM
GI50 (DU-145 prostate): 58.7 µM
TGI (DU-145 prostate): > 100 µM
GI50 (SN12C renal): 21.1 µM
TGI (SN12C renal): 48 µM
GI50 (HOP-62 NSCLC): 33.7 µM
TGI (HOP-62 NSCLC): > 100 µM
GI50 (NCI/ADR-RES ovarian): 68.4 µM
TGI (NCI/ADR-RES ovarian): > 100 µM
GI50 (OVCAR-8 ovarian): 35 µM
TGI (OVCAR-8 ovarian): > 100 µM
GI50 (PC-3 prostate): 26.1 µM
TGI (PC-3 prostate): > 100 µM
GI50 (T-47D breast): 26.4 µM
TGI (T-47D breast): > 100 µM
GI50 (HCC-2998 colon): 34.3 µM
TGI (HCC-2998 colon): 89.7 µM
GI50 (CCRF-CEM leukemia): 37.2 µM
TGI (CCRF-CEM leukemia): > 100 µM
GI50 (MALME-3M melanoma): 21.3 µM
TGI (MALME-3M melanoma): 52.4 µM
GI50 (UACC-257 melanoma): 35.6 µM
TGI (UACC-257 melanoma): > 100 µM
GI50 (SF-268 CNS): 34 µM
TGI (SF-268 CNS): > 100 µM
GI50 (U251 CNS): 18.1 µM
TGI (U251 CNS): 44 µM
GI50 (SK-MEL-28 melanoma): > 100 µM
TGI (SK-MEL-28 melanoma): > 100 µM
GI50 (TK-10 renal): 24.5 µM
TGI (TK-10 renal): > 100 µM
GI50 (MCF7 breast): 18.2 µM
TGI (MCF7 breast): > 100 µM
GI50 (SK-MEL-5 melanoma): 21.1 µM
TGI (SK-MEL-5 melanoma): 37.4 µM
GI50 (UO-31 renal): 37.5 µM
TGI (UO-31 renal): > 100 µM
GI50 (HCT-116 colon): 17.6 µM
TGI (HCT-116 colon): 42.5 µM
GI50 (UACC-62 melanoma): 17.5 µM
TGI (UACC-62 melanoma): > 100 µM
GI50 (M14 melanoma): 28.6 µM
TGI (M14 melanoma): > 100 µM
GI50 (EKVX NSCLC): 27.7 µM
TGI (EKVX NSCLC): 71.3 µM
GI50 (SK-MEL-2 melanoma): 26.8 µM
TGI (SK-MEL-2 melanoma): 72.4 µM
GI50 (SW-620 colon): 44.1 µM
TGI (SW-620 colon): > 100 µM
GI50 (IGROV1 ovarian): 30 µM
TGI (IGROV1 ovarian): > 100 µM
GI50 (A498 renal): 17.9 µM
TGI (A498 renal): 46.6 µM
GI50 (SNB-19 CNS): 95.5 µM
TGI (SNB-19 CNS): > 100 µM
